{"source": "patent US20220283177A1", "about": "“METHOD FOR DETECTING INTERACTION AND AFFINITY BETWEEN LIGAND AND PROTEIN” (DALIAN INSTITUTE OF CHEMICAL PHYSICS, CHINESE ACADEMY OF …, priority 2019, published 2022)", "key": {"[1]": {"details": "withdrawn from clinical trials; cited from earlier work"}, "NDUFV1": {"biological_target": "NDUFV1 (Homo sapiens, UniProt P49821)", "sequence (P49821 21-464)": "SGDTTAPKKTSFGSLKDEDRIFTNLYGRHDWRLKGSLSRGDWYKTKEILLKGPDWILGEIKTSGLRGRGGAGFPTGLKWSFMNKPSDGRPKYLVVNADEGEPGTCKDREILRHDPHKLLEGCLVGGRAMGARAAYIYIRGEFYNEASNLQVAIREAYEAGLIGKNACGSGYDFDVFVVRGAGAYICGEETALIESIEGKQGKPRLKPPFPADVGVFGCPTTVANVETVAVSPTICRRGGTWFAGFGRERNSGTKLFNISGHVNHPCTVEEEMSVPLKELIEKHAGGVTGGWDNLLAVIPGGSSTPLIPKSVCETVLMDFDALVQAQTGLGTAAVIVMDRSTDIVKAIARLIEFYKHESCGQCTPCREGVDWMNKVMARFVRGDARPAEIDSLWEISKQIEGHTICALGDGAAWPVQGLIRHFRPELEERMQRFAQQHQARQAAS", "test": "Affinity evaluation by solvent mixture-based SIP dose response (western blotting)", "from_the_text": "The calculation equation: Y=min+(max−min)/(1+10^((Log EC50−X)*Hill Slope)), Y is the protein abundance, X is the different drug concentrations, min and max are the minimum and maximum values of the corresponding protein abundance on the Y axis, respectively. Hill Slope is the absolute value of the maximum slope of the curve (i.e., the midpoint of the curve)."}, "GSK-3a": {"biological_target": "GSK-3a (Homo sapiens, UniProt P49840)", "sequence (P49840 whole entry)": "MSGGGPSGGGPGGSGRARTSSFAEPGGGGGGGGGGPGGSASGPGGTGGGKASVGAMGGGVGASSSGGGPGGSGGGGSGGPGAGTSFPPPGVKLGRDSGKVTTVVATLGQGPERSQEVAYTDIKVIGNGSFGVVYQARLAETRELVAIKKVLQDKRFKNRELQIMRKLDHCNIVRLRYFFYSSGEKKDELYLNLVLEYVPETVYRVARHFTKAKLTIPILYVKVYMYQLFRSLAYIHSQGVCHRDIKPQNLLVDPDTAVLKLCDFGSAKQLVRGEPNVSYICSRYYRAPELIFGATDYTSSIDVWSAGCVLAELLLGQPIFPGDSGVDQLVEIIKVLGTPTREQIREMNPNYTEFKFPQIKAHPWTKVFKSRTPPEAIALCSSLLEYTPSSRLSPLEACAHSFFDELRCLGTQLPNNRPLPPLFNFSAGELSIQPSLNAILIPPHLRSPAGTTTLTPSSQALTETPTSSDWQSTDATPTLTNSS", "test": "Solvent mixture (A.E.A.)-based SIP, quantitative proteomics, SNS-032", "details": "100 μM SNS-032, 293T cell lysate, 13% A.E.A. (FIG. 2F)", "from_the_text": "(§1) One portion of the supernatants was used for western blotting analysis and the left portion was used for MS-based quantification."}, "CDK9 [2]": {"biological_target": "T1, CDK9 (Homo sapiens, UniProt P50750)", "T1 sequence (P50750 whole entry)": "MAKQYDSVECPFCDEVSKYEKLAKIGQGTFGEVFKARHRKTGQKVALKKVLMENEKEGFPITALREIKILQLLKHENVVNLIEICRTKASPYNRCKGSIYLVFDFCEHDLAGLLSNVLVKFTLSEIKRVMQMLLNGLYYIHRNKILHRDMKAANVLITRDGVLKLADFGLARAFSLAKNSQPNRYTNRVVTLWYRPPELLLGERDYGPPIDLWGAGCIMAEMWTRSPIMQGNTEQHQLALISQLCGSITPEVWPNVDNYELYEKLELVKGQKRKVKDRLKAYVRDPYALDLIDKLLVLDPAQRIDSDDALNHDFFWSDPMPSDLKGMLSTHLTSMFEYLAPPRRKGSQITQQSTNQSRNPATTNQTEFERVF", "T1 sequence (O60563 whole entry partner)": "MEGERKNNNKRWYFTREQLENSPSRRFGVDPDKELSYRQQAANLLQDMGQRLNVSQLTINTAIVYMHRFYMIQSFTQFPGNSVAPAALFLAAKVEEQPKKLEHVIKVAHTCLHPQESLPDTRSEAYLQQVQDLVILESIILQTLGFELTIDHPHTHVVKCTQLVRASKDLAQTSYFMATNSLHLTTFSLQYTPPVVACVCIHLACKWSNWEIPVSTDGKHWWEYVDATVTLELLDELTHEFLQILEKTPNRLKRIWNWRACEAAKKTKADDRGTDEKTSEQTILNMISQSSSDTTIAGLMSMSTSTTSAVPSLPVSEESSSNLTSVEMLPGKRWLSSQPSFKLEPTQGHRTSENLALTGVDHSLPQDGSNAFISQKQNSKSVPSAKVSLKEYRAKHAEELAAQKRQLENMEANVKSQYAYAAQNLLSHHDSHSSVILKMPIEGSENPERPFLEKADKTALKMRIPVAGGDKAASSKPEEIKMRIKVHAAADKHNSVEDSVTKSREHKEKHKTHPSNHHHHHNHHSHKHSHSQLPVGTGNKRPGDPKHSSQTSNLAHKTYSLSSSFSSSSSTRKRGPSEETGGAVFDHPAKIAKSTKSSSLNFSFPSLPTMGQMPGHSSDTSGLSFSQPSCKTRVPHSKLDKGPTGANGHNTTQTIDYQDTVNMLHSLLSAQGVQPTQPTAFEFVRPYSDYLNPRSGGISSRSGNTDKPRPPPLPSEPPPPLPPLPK", "test": "CA-based SIP, western blotting, SNS-032", "format": "binding", "details": "100 μM SNS-032, 293T cell lysate, CA gradient", "text": "The procedure of western blotting was as same as Sample 1."}, "CDK9 [3]": {"biological_target": "T1, CDK9", "test": "Solvent mixture (A.E.A.)-based SIP, western blotting, SNS-032", "details": "100 μM SNS-032, 293T cell lysate, high percentage of A.E.A.", "from_the_text": "as §1"}}, "data": [{"molecule": "COC1=C2C[C@@H](C)C[C@H](OC)[C@H](O)[C@@H](C)/C=C(\\C)[C@H](OC(N)=O)[C@@H](OC)/C=C\\C=C(/C)C(=O)NC(=CC1=O)C2=O", "note": "[geldanamycin]", "values": [{"measurement": "side effects in clinical trials", "setting": "[1]", "value": "severe hepatotoxicity"}, {"measurement": "EC50", "setting": "NDUFV1", "value": "10 to 100", "unit": "µM"}]}, {"molecule": "CC(C)(C)c1cnc(CSc2cnc(NC(=O)C3CCNCC3)s2)o1", "note": "[SNS-032]", "values": [{"measurement": "average log 2 FC (H/L normalization ratio) of GSK-3a", "setting": "GSK-3a", "value": 1.13}, {"measurement": "abundance of CDK9 by western blotting", "setting": "CDK9 [2]", "value": "higher as compared with that in the control group"}, {"measurement": "stabilization of CDK9 by western blotting", "setting": "CDK9 [3]", "value": "significant stabilization shifts"}]}]}
